Patent publication US20250090540A1, “PI3K-ALPHA INHIBITORS AND METHODS OF USE THEREOF” (Relay Therapeutics, Inc., priority 2021, published 2025)
Where two headings read alike, the source gives them in different places.

Tests used:
[1] = target: H1047R PIK3CA enzyme (Homo sapiens, UniProt P42336, H1047R); assay: ADP-Glo Biochemical PIK3CA Kinase Assay
[2] = cells; details: Homo sapiens, MCF-10A, read-out: MCF10A I50
[3] = ADP-Glo biochemical PIK3CA kinase assay

Chain of H1047R PIK3CA enzyme (P42336 whole entry H1047R): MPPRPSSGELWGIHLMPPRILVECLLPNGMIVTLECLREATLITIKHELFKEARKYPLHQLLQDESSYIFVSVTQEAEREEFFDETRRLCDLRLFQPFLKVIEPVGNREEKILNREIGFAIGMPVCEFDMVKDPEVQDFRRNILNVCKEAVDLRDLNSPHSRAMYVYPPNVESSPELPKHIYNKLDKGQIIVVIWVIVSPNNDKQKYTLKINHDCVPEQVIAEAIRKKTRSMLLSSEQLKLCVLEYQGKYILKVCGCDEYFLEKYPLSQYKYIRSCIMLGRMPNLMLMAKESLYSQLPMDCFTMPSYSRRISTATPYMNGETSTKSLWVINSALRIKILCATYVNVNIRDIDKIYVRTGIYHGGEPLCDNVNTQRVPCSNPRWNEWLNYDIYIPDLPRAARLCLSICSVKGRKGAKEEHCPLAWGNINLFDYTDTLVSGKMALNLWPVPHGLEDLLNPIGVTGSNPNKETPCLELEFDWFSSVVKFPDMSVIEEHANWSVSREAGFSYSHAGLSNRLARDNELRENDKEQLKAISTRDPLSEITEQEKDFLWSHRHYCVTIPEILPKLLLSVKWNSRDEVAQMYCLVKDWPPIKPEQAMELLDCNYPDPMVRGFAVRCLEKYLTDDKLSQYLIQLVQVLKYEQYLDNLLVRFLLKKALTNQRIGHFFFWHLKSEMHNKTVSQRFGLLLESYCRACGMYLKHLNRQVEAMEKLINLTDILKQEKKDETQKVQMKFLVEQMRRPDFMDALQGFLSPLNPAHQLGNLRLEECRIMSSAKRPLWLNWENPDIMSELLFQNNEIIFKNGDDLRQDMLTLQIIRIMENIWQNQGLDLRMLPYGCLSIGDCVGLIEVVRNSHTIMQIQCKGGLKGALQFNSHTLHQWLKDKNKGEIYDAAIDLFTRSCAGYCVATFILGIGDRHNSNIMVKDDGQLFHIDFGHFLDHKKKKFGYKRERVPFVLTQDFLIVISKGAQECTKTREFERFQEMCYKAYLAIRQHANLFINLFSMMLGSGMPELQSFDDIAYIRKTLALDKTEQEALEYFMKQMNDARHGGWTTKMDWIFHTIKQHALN
Chain of H1047R PIK3CA enzyme (P27986 whole entry partner): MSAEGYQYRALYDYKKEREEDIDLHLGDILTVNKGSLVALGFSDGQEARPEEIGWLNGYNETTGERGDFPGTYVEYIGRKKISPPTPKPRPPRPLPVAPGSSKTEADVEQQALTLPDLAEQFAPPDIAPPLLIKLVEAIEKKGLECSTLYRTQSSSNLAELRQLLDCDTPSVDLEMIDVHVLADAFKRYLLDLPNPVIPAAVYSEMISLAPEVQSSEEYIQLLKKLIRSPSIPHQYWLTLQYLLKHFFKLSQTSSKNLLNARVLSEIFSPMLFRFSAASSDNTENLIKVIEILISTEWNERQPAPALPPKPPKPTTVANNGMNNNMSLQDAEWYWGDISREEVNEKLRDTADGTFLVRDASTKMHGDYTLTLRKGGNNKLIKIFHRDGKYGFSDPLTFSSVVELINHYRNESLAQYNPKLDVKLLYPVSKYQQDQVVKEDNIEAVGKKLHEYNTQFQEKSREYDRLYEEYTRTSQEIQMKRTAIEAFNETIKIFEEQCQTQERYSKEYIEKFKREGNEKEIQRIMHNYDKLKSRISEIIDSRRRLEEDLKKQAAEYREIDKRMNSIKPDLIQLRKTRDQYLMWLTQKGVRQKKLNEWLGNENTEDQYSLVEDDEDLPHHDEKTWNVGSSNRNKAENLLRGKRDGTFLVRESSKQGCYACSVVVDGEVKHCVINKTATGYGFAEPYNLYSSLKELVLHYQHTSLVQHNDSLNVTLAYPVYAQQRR

Row | SMILES | IC50 [1, 3] [nM] | IC50 [2] [nM] | IC50 [1] [nM]
1 | Cc1ccccc1Nc1ncc(C(=O)N[C@H]2COC[C@@H]2O)cc1NC(=O)c1csc2ccccc12 [I-618] | 100 to 500 | 1000 to 5000 | –
2 | Cc1ccccc1Nc1ncc(C(=O)N[C@H]2COc3ccccc3C2)cc1NC(=O)c1csc2ccccc12 [I-619] | 100 to 500 | 36000 to 100000 | –
3 | Cc1ccccc1Nc1ncc(C(=O)NCC2CCCOC2)cc1NC(=O)c1csc2ccccc12 (stereo not drawn) [I-621] | 100 to 500 | 10000 to 36000 | –
4 | Cc1ccccc1Nc1ncc(C(=O)N[C@H]2CCOC2)cc1NC(=O)c1csc2ccccc12 [I-622] | 100 to 500 | 1000 to 5000 | –
5 | Cc1ccccc1Nc1ncc(C(=O)Nc2cnn(C)c2)cc1NC(=O)c1csc2ccccc12 [I-624] | 100 to 500 | < 1000 | –
6 | Cc1ccn2c(CNC(=O)c3cnc(Nc4ccccc4C)c(NC(=O)c4csc5ccccc45)c3)nnc2c1 [I-625] | 100 to 500 | 10000 to 36000 | –
7 | Cc1ccccc1Nc1ncc(C(=O)N[C@@H]2CC[C@@H](O)C2)cc1NC(=O)c1csc2ccccc12 [I-626] | 100 to 500 | 1000 to 5000 | –
8 | Cc1ccccc1Nc1ncc(C(=O)N2CCn3nccc32)cc1NC(=O)c1csc2ccccc12 [I-627] | 1000 to 10000 | 10000 to 36000 | –
9 | Cc1ccccc1Nc1cccnc1NC(=O)c1csc2ccccc12 [I-635] | 100 to 500 | 36000 to 100000 | –
10 | CNC(=O)c1cnc(Nc2ccccc2C)c(NC(=O)Cc2cnc3ccccn23)c1 [I-652] | 100 to 500 | 10000 to 36000 | –
11 | CNC(=O)c1cnc(N)c(NC(=O)c2csc3ccccc23)c1 [I-676] | 500 to 1000 | 10000 to 36000 | –
12 | CNC(=O)c1cnc(Nc2ccccc2C)c(NC(=O)c2cc(F)c(F)c(C(F)(F)F)c2)c1 [I-677] | 1000 to 10000 | 10000 to 36000 | –
13 | CNC(=O)c1cnc(Nc2cccc3ccn(C)c23)c(NC(=O)c2csc3ccccc23)c1 [I-680] | 1000 to 10000 | 10000 to 36000 | –
14 | Cc1ccccc1Nc1ncc(C(=O)N[C@H]2C[C@H](C(=O)O)C2)cc1NC(=O)c1csc2ccccc12 [I-685] | 500 to 1000 | 10000 to 36000 | –
15 | CC(NC(=O)c1cnc(N)c(NC(=O)c2csc3ccccc23)c1)c1nnc2ccccn12 (stereo not drawn) [I-691] | 100 to 500 | 5000 to 10000 | –
16 | CNC(=O)[C@H]1C[C@@H](NC(=O)c2cnc(Nc3ccccc3C)c(NC(=O)c3csc4ccccc34)c2)C1 [I-692] | 100 to 500 | 10000 to 36000 | –
17 | Cc1ccccc1Nc1ncc(C(=O)NCc2cccnc2)cc1NC(=O)c1cc(F)cc(C(F)(F)F)c1 [I-700] | 100 to 500 | 10000 to 36000 | –
18 | CNC(=O)c1cnc(NC2CCOc3ccc(F)cc32)c(NC(=O)c2csc3ccccc23)c1 (stereo not drawn) [I-745] | 100 to 500 | 5000 to 10000 | –
19 | Cc1ccccc1Nc1ncc(C(=O)NCC2(C#N)CC2)cc1NC(=O)c1cc(F)cc(C(F)(F)F)c1 [I-750] | 100 to 500 | 5000 to 10000 | –
20 | CNC(=O)c1cnc(Nc2ccccc2C)c(NC(=O)c2cc(C)nc(C(F)(F)F)c2)c1 [I-765] | 100 to 500 | 1000 to 5000 | –
21 | CNC(=O)c1cnc(Nn2nccc2C(F)(F)F)c(NC(=O)c2csc3ccccc23)c1 [I-772] | ≤ 100 | 1000 to 5000 | –
22 | CNC(=O)c1cc(F)c(Nc2ccccc2C)c(NC(=O)c2csc3ccccc23)c1 [I-773] | ≤ 100 | < 1000 | –
23 | Cc1ccccc1Nc1c(F)cc(C(=O)NC2CS(=O)(=O)C2)cc1NC(=O)c1csc2ccccc12 [I-774] | ≤ 100 | 10000 to 36000 | –
24 | CC(C)(O)c1cnc(Nc2cc(F)ccc2Cl)c(NC(=O)c2nsc3ccccc23)c1 [I-783] | 100 to 500 | 5000 to 10000 | –
25 | CNC(=O)c1ccc(Nc2cc(F)ccc2Cl)c(NC(=O)c2cc(F)cc(C(F)(F)F)c2)n1 [I-802] | – | 1000 to 5000 | 100 to 500
26 | CNC(=O)c1cnc(Nc2cc(CO)ccc2Cl)c(NC(=O)c2cc(F)cc(C(F)(F)F)c2)c1 [I-809] | – | 1000 to 5000 | 100 to 500
27 | Cc1ccccc1Nc1nc2ccccc2cc1NC(=O)N1CC(O)c2ccccc21 (stereo not drawn) [I-828, 3-hydroxy-N-(2-(o-tolylamino)quinolin-3-yl)indoline-1-carboxamide] | – | 5000 to 10000 | 500 to 1000
